Reference: PMC11047580, “Design and Synthesis of Novel Amino and Acetamidoaurones with Antimicrobial Activities” (Antibiotics, 2024)
In brackets after ≈: the same amount, converted by molar mass.

Tests used:
E. coli ATCC8739 = assay: MIC assay; type: cell-based, Escherichia coli; details: Escherichia coli, ATCC8739; two-fold serial dilutions in liquid media; n = 2–3
P. aeruginosa ATCC9027 = assay: MIC assay; type: cell-based, Pseudomonas aeruginosa; details: Pseudomonas aeruginosa, ATCC9027; two-fold serial dilutions in liquid media; n = 2–3
M. smegmatis ATCC700084 = assay: MIC assay (REMA); type: cell-based, Mycobacterium smegmatis; details: Mycolicibacterium smegmatis, ATCC700084, REMA microdilution, n = 2–3
[1] = tested on: Bacillus anthracis (CNR-charbon_04022); assay: microbe, parasite or virus in culture; type: cell-based; details: read-out: MIC Bacillus anthracis (CNR-charbon_04022)
Bacillus cereus (DSM31) = assay: MIC assay; type: cell-based; details: two-fold serial dilutions in liquid media, n = 2–3
[2] = tested on: Clostridium difficile (DSM1296); assay: MIC assay; type: cell-based; details: Clostridioides difficile, two-fold serial dilutions in liquid media, n = 2–3
[3] = tested on: Clostridium perfringens (ATCC13124); assay: microbe, parasite or virus in culture; type: cell-based; details: ATCC13124, read-out: MIC Clostridium perfringens (ATCC13124)
[4] = tested on: Enterococcus faecium (DSM20477); assay: MIC assay; type: cell-based; details: two-fold serial dilutions in liquid media, n = 2–3
MRSA (ATCCBAA-1717) = assay: MIC assay; type: cell-based, methicillin-resistant S. aureus; details: Staphylococcus aureus, read-out: MIC MRSA (ATCCBAA-1717)
[5] = tested on: Streptococcus pyogenes (DSM20565); assay: MIC assay; type: cell-based; details: two-fold serial dilutions in liquid media, n = 2–3
[6] = tested on: Acinetobacter baumannii (DSM30007); assay: MIC assay; type: cell-based; details: two-fold serial dilutions in liquid media, n = 2–3
[7] = tested on: Brucella melitensis (NR-256); assay: microbe, parasite or virus in culture; type: cell-based; details: read-out: MIC Brucella melitensis (NR-256)
[8] = tested on: Enterobacter cloacae (DSM30054); assay: MIC assay; type: cell-based; details: two-fold serial dilutions in liquid media, n = 2–3
[9] = tested on: Francisella tularensis (NR-643); assay: microbe, parasite or virus in culture; type: cell-based; details: read-out: MIC Francisella tularensis (NR-643)
[10] = tested on: Klebsiella pneumonia (DSM26371); assay: MIC assay; type: cell-based; details: two-fold serial dilutions in liquid media, n = 2–3
[11] = tested on: Salmonella enterica (CIP80.39); assay: MIC assay; type: cell-based; details: two-fold serial dilutions in liquid media, n = 2–3
[12] = tested on: Shigella flexneri (ATCC12022); assay: MIC assay; type: cell-based; details: two-fold serial dilutions in liquid media, n = 2–3
[13] = tested on: Vibrio alginolyticus (DSM2171); assay: MIC assay; type: cell-based; details: two-fold serial dilutions in liquid media, n = 2–3
Yersinia pestis (NR-641) = assay: microbe, parasite or virus in culture; type: cell-based; details: read-out: MIC Yersinia pestis (NR-641)
[14] = tested on: Mycobacterium abscessus S (CIP 104536^T); assay: MIC assay (REMA); type: cell-based; details: REMA microdilution, n = 2–3
[15] = tested on: Mycobacterium tuberculosis H37Rv (mc^26230); assay: MIC assay (REMA); type: cell-based; details: REMA microdilution, n = 2–3
[16] = tested on: Fusarium oxysporum (DSM62316); assay: MIC assay; type: cell-based; details: two-fold serial dilutions in liquid media, n = 2–3
Candida auris (DSM21092) = assay: MIC assay; type: cell-based; details: Candidozyma auris, two-fold serial dilutions in liquid media, n = 2–3
[17] = tested on: Candida glabrata (DSM11226); assay: MIC assay; type: cell-based; details: Nakaseomyces glabratus, two-fold serial dilutions in liquid media, n = 2–3
[18] = tested on: Candida tropicalis (DSM9419); assay: MIC assay; type: cell-based; details: two-fold serial dilutions in liquid media, n = 2–3
[19] = tested on: Cryptococcus neoformans (DSM11959); assay: MIC assay; type: cell-based; details: two-fold serial dilutions in liquid media, n = 2–3
[20] = tested on: kidney epithelial cell line A498; details: human
[21] = tested on: normal lung epithelial cells BEAS-2B; details: human
[22] = tested on: intestinal cell line Caco-2; details: human
[23] = tested on: normal epidermal keratinocytes (HaCaT); details: human
liver cell line HepG2 = details: human
[24] = tested on: normal lung fibroblasts IMR-90; details: human
[25] = tested on: human cells (A498, BEAS-2B, Caco-2, HaCaT, HepG2, IMR-90)
[26] = Cytotoxic assay (resazurin); details: human, A498 kidney epithelial cells
[27] = Cytotoxic assay (resazurin); details: human, BEAS-2B normal lung epithelial cells
[28] = Cytotoxic assay (resazurin); details: human, Caco-2
[29] = Cytotoxic assay (resazurin); details: human, HaCaT normal epidermal keratinocytes
[30] = Cytotoxic assay (resazurin); details: human, HepG2 liver cells
[31] = Cytotoxic assay (resazurin); details: human, IMR-90 normal lung fibroblasts

CC(=O)Nc1ccc2c(c1)C(=O)/C(=C/c1cccc(OCc3ccccc3)c1)O2 [Compound 10, (Z)-N-(2-(3-(benzyloxy)benzylidene)-3-oxo-2,3-dihydrobenzofuran-5-yl)acetamide]
MIC (E. coli ATCC8739): 12.5 µM (≈ 4.82 µg/mL) | MIC (P. aeruginosa ATCC9027): 25 µM (≈ 9.64 µg/mL) | MIC (M. smegmatis ATCC700084): 50 µM (≈ 19.3 µg/mL) | MIC [1]: 12.5 µM (≈ 4.82 µg/mL) | MIC (Bacillus cereus (DSM31)): 12.5 µM (≈ 4.82 µg/mL) | MIC [2]: 12.5 µM (≈ 4.82 µg/mL) | MIC [3]: > 100 µM | MIC [4]: 100 µM (≈ 38.5 µg/mL) | MIC (MRSA (ATCCBAA-1717)): 12.5 µM (≈ 4.82 µg/mL) | MIC [5]: 50 µM (≈ 19.3 µg/mL) | MIC [6]: 12.5 µM (≈ 4.82 µg/mL) | MIC [7]: 25 µM (≈ 9.64 µg/mL) | MIC ([8]; Enterobacter cloacae, DSM30054): > 100 µM | MIC [8]: >100 µM | MIC [9]: 50 µM (≈ 19.3 µg/mL) | MIC ([10]; Klebsiella pneumoniae, DSM26371): > 100 µM | MIC [10]: >100 µM | MIC [11]: 25 µM (≈ 9.64 µg/mL) | MIC [12]: 25 µM (≈ 9.64 µg/mL) | MIC [13]: 25 µM (≈ 9.64 µg/mL) | MIC (Yersinia pestis (NR-641)): 12.5 µM (≈ 4.82 µg/mL) | MIC ([14]; Mycobacteroides abscessus, CIP104536, S morphotype): > 100 µM | MIC Mycobacterium abscessus S (CIP 104536^T) ([14]; S morphotype): inactive | MIC ([15]; Mycobacterium tuberculosis, H37RV): > 100 µM | MIC Mycobacterium tuberculosis H37Rv (mc^26230) [15]: inactive | MIC [16]: 25 µM (≈ 9.64 µg/mL) | MIC (Candida auris (DSM21092)): 50 µM (≈ 19.3 µg/mL) | MIC [17]: 50 µM (≈ 19.3 µg/mL) | MIC [18]: 100 µM (≈ 38.5 µg/mL) | MIC [19]: 25 µM (≈ 9.64 µg/mL) | melting point: 204.5 °C | TI with MIC of 0.78 µM, A498 [20]: 510.5 | TI with MIC of 0.78 µM, BEAS-2B [21]: 216.6 | TI with MIC of 0.78 µM, Caco-2 [22]: 255.8 | TI with MIC of 0.78 µM, HaCaT [23]: 344.2 | TI with MIC of 0.78 µM, HepG-2 (liver cell line HepG2): 605.6 | TI with MIC of 0.78 µM, IMR-90 [24]: 540.2 | TI values, range over human cells [25]: 216.6-605.6 | CC50 at 48 h [26]: 398 µM | CC50 at 48 h [27]: 169 µM | CC50 at 48 h [28]: 200 µM | CC50 at 48 h [29]: 268 µM | CC50 at 48 h [30]: 472 µM | CC50 at 48 h [31]: 421 µM
